The source of these data is patent publication US6852735B1, “Siastatin B derivatives having a glycosidase inhibitory activity and processes for producing the same” (Zaidan Hojin Biseibutsu Kagaku Kenkyu Kai, priority 1998, dated 2005).

What all share (assay type): biochemical
Experiment [1] has as its target T1, α-D-mannosidase (from jack bean) (Canavalia ensiformis, UniProt C0HJB3).
T1 sequence (C0HJB3 1-981): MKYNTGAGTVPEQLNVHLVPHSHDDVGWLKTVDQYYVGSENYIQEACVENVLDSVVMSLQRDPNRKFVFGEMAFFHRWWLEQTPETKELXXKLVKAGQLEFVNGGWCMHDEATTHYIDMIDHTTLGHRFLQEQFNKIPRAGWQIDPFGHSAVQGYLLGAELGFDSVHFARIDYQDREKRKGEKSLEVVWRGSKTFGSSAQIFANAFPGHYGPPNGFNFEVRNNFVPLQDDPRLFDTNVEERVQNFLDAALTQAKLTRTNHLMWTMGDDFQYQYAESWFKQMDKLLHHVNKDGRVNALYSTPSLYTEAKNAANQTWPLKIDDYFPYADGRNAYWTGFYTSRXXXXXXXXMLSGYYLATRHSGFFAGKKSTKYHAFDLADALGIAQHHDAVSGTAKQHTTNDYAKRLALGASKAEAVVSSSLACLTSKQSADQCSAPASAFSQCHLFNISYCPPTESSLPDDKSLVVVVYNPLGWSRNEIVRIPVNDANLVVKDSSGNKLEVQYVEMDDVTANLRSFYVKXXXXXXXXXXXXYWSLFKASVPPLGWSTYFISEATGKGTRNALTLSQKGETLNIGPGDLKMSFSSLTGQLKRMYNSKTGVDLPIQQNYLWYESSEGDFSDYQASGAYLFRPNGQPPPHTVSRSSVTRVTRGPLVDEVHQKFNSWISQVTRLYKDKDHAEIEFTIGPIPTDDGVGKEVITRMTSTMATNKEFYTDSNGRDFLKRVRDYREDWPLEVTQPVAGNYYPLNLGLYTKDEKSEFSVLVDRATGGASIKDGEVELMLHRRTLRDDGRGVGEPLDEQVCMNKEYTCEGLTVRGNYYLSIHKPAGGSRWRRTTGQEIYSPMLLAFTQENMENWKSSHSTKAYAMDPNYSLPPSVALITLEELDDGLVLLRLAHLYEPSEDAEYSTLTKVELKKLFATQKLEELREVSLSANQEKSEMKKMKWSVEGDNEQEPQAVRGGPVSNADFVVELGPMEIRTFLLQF
Kind of experiment: α-mannosidase inhibition (Test Example 5). Particulars: for IC50: α-D-mannosidase from jack bean, substrate p-nitrophenyl-α-D-mannoside, sodium acetate buffer pH 4.5, read-out: 50% inhibiory concentration (IC50) Enzyme G (converted); for inhibition of α-D-mannosidase, in words: summary of Table 1. Here is the method:
(§1) Thus, 0.5 mL of 0.025M citrate-phosphate buffer (pH 4.0), 0.1 mL of the same buffer containing 10 mM p-nitro-phenyl-N-acetyl-α-D-galactosaminide dissolved therein, and 0.1 mL of either water or an aqueous solution containing as the test compound any one of the compounds of the formulae (I), (V) and (X) according to this invention were mixed with each other and pre-incubated in a 96-wells titer plate at 37° C. for 10 minutes. After the completion of the pre-incubation, to the pre-incubated mixture was added 0.01 mL of 0.025 M citrate-phosphate buffer containing α-N-acetyl-galactosaminidase originated from chicken liver (a product of Sigma Company) which was dissolved in said buffer as a glycosidase to be tested. Thereafter, the enzymatic reaction was conducted at 37° C. for 30 minutes.
(§2) After the enzymatic reaction, to the reaction solution was added 1.0 mL of 0.3M glycine—sodium hydroxide buffer (pH 10.5), in order to terminate the enzymatic reaction. Thereafter, the absorbance [designated as value (a)] of light at 405 nm of the resulting reaction solution was measured. Concurrently, measurement was made of the absorbance [designated as value (b)] at 405 nm of the reaction solution as obtained in the control test where the enzymatic reaction was conducted without addition of the test compound. Further, measurements were made of the absorbance [designated as values (a′)] and the absorbance [[designated as values (b′)] at 405 nm of the solutions as obtained in the blank test and the control test, respectively, where the enzymatic reaction was not conducted in the assay test. The rate of inhibition to […] was calculated by the equation: [1-(a-a′)/(b-b′)]×100.
(§3) The test results obtained are summarized as IC50 value in Table 1 below.
(§4) This Test Example is a test example for determining the α-mannosidase or β-mannosidase-inhibitory activity of the compounds according to this invention.
(§5) The evaluation of the β-mannosidase-inhibitory activity was conducted according to a modification of the method described in the “Journal of Biological Chemistry”, 242, p.5474 (1967).
(§6) Namely, the test was conducted in the same manner as the test for the enzyme-inhibitory activity test described in Test Example 1, but with using α-mannosidase from jack bean or β-mannosidase from snail (both enzymes are products of Sigma Company) as the glycosidase enzyme, with using 0.05 M sodium acetate—acetate buffer (pH 4.5) as the buffer, and with using p-nitrophenyl-α-D-mannoside or p-nitrophenyl-β-D-mannoside as the substrate. Furthermore, absorbances of light were measured in the same manner as in Test Example 1. IC50 values of the test compound capable of giving the 50% inhibition to the enzymes were calculated.

Experiment [2] deals with β-D-mannosidase (from snail). Kind of experiment: β-mannosidase inhibition (Test Example 5). As to conditions: for inhibition of β-D-mannosidase, in words: summary of Table 1; for 50% inhibiory concentration (IC50) Enzyme F: β-D-mannosidase from snail, substrate p-nitrophenyl-β-D-mannoside, sodium acetate buffer pH 4.5. Here is the method:
as §1, §2, §3, §4, §5, §6

Experiment [3] relates to β-N-acetylglucosaminidase (from bovine epididymis). Kind of experiment: β-N-acetylglucosaminidase inhibition (Test Example 2). As to conditions: for inhibition of N-acetylglucosaminidase, in words: summary of Table 1; for 50% inhibiory concentration (IC50) Enzyme B: β-N-acetylglucosaminidase from bovine epididymis, substrate p-nitrophenyl-N-acetyl-β-D-glucosaminide. Here is the method:
as §1, §2, §3
This Test Example is a test example for determining the N-acetylglucosaminidase-inhibitory activity of the compound of the formula (I), (V) or (X) according to this invention.
The evaluation of the N-acetylglucosaminidase-inhibitory activity was conducted according to a modification of the method described in the “Methods in Enzymology”, 28, p.772 (1972).
Namely, the test was conducted in the same manner as the test for the N-acetylgalactosamnidase-inhibitory activity as described above, but with using […] (a product of Sigma Company) originated from bovine epididymis, as the glycosidase enzyme to be tested, and with using p-nitrophenyl-N-acetyl-β-D-glucosaminide as the substrate. Furthermore, absorbances of light at 405 nm were measured in the same manner as described in […]. IC50 value of the test compound capable of giving the 50% inhibition to β-N-acetyl-glucosaminidase was calculated.

In experiment [4] the target is α-D-glucosidase (from yeast). Kind of experiment: α-glucosidase inhibition (Test Example 4). Particulars: for 50% inhibiory concentration (IC50) Enzyme H: α-D-glucosidase from yeast, substrate p-nitrophenyl-α-D-glucoside; for inhibition of α-D-glucosidase, in words: summary of Table 1. Here is the method:
as §1, §2, §3
This Test Example is a test example for determining the α-glucosidase or β-glucosidase-inhibitory activity of the compound of the formula (I), (V) or (X) according to this invention.
The evaluation of the β-glucosidase-inhibitory activity was conducted according to a modification of the method described in the “Agricultural and Biological Chemistry”, 26, p.203 (1962).
Namely, the test was conducted in the same manner as the test for the enzyme-inhibitory activity described in Test Example 1, but with using α-glucosidase originated from yeast or β-glucosidase originated from almond (both enzymes are products of Sigma Company) as the glycosidase enzyme, and with using p-nitro-phenyl-α-D-glucoside or p-nitrophenyl-β-D-glucoside as the substrate. Furthermore, absorbances of light were measured in the same manner as in Test Example 1, and IC50 values of the test compound capable of giving the 50% inhibition to the enzyme were calculated.

For `O=C(N[C@H]1NC[C@H](CO)[C@H](O)[C@@H]1O)C(F)(F)F` [Formula (I), 6-deacetamido-3-decarboxy-3-hydroxymethyl-6-trifluoroacetamido-siastain B], the IC50 in experiment [1] was more than 387 µM. In experiment [2], the “inhibition of β-D-mannosidase, in words” value is recorded as “inhibit strongly” and the “50% inhibiory concentration (IC50) Enzyme F” value stood at 38 mg/L. For the same compound, in experiment [3], the “inhibition of N-acetylglucosaminidase, in words” value is given as “inhibit strongly” and the “50% inhibiory concentration (IC50) Enzyme B” value was found to be 22 mg/L. Also, the “50% inhibiory concentration (IC50) Enzyme H” value in experiment [4] is more than 100 mg/L.

`CC(=O)NC1NCC(CO)C(O)C1O` (stereo not drawn) [Formula (V), 3-decarboxy-4-epi-3-hydroxymethyl-siastain B]: in experiment [1], the “inhibition of α-D-mannosidase, in words” value is recorded as “inhibit strongly” and the IC50 is 318 µM. In addition, in experiment [2], the “inhibition of β-D-mannosidase, in words” value was “inhibit strongly” and the “50% inhibiory concentration (IC50) Enzyme F” value is 10 mg/L. Moreover, in experiment [3], the “inhibition of N-acetylglucosaminidase, in words” value is given as “inhibit strongly” and the “50% inhibiory concentration (IC50) Enzyme B” value turned out to be 3 mg/L. In experiment [4], the “inhibition of α-D-glucosidase, in words” value was “inhibit strongly” and the “50% inhibiory concentration (IC50) Enzyme H” value is 7 mg/L.

For `O=C(N[C@H]1NC[C@H](CO)[C@@H](O)[C@@H]1O)C(F)(F)F` [Formula (X), 6-deacetamido-3-decarboxy-4-epi-3-hydroxymethyl-6-trifluoroacetamido-siastain B], in experiment [1], the “inhibition of α-D-mannosidase, in words” value is reported as “inhibit strongly” and the IC50 was 2.9 µM. In addition, in experiment [2], the “inhibition of β-D-mannosidase, in words” value was “inhibit strongly” and the “50% inhibiory concentration (IC50) Enzyme F” value was determined as 1 mg/L. The “50% inhibiory concentration (IC50) Enzyme B” value in experiment [3] is more than 100 mg/L. In experiment [4], the “inhibition of α-D-glucosidase, in words” value is recorded as “inhibit strongly” and the “50% inhibiory concentration (IC50) Enzyme H” value turned out to be 0.06 mg/L.
